Target: T1, human androgen receptor (AR) (Homo sapiens, UniProt P10275)
T1 construct: expressed in transfected cells; host or cells: HEK293, transient transfection (Fugene), CMV promoter plasmid
T1 sequence (P10275 1-920): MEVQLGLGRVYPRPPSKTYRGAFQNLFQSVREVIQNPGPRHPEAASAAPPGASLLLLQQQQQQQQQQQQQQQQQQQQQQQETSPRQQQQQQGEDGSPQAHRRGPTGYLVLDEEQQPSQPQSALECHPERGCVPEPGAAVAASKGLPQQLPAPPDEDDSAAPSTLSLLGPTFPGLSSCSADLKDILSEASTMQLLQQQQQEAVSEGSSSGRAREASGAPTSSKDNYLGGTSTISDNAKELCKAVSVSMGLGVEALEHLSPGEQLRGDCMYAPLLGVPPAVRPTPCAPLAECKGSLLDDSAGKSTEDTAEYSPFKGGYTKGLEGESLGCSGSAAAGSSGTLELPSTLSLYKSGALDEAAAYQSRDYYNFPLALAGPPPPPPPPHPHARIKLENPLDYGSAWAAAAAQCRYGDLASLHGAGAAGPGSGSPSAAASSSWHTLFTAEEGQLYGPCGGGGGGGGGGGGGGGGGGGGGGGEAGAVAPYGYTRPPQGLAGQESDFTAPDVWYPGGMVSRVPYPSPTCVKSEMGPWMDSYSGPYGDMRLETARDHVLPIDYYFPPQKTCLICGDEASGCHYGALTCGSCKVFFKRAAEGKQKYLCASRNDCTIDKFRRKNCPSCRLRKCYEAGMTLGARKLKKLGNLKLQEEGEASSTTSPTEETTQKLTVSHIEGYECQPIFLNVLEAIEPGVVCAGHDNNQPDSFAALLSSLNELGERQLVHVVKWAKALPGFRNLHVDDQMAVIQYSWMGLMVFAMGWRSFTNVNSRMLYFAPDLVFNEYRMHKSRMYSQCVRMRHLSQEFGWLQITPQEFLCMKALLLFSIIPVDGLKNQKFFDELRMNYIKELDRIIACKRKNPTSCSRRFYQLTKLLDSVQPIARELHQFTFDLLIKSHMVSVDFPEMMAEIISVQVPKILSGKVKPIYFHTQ
Experiment: Nuclear hormone receptor functional modulation assay (ARE-luciferase, HEK293), AR
Assay type: cell-based
Source text: The solvents, reagents, and ligands employed in the functional assay are readily available from commercial sources, or can be prepared by one of ordinary skill in the art.
Human embryonic kidney HEK293 cells are transfected with steroid hormone receptor and reporter gene plasmids using Fugene™ (Roche Diganostics) transfection reagent. Briefly, the reporter plasmid containing two copies of probasin ARE (androgen response element 5′GGTTCTTGGAGTACT3′ (SEQ ID NO:1)) and TK(thymidine kinase) promoter upstream of the luciferase reporter cDNA, is transfected into HEK293 cells with a plasmid constitutively expressing human androgen receptor (AR) using viral CMV(cytomegalovirus) promoter. The reporter plasmid containing two copies of GRE (glucocorticoid response element 5′TGTACAGGATGTTCT′3 (SEQ ID NO:2)) and TK promoter upstream of the luciferase reporter cDNA is transfected with a plasmid constitutively expressing either human glucocorticoid receptor (GR), human mineralocorticoid receptor (MR), or human progesterone receptor (PR) using viral CMV promoter. Cells are transfected in T150 cm flasks in DMEM media with 5% charcoal-stripped Fetal Bovine Serum (FBS). […] In the antagonist mode for the assays, low concentrations of agonist for each respective receptor are added to the media (0.25 nM dexamethasone for GR, 0.3 nM of methyltrienolone for AR, 0.05 nM of promegestone for PR and 0.05 nM aldosterone for MR), and the ability of test compound to antagonize the agonist response is determined. After 24 hours of incubation with test compounds, cells are lysed and luciferase activity is determined using standard techniques.
Data are fitted to a four parameter-fit logistic curve fit to determine EC50 values. […] IC50 values may be determined similarly using antagonist mode assay data. Percent inhibitions may also be determined relative to the response in the presence of agonist alone, as described above.

## CC/C(=C1\c2ccc(Cl)cc2OCc2ncccc21)c1cccc(NS(C)(=O)=O)c1 [Compound (I), (E)-N-{3-[1-(8-Chloro-11H-10-oxa-1-aza-dibenzo[a,d]cyclohepten-5-ylidene)-propyl]-phenyl}-methanesulfonamide]
Agonist mode, activating transcription
  EC50: > 10 µM
Functional modulation, in words
  modulation of gene expression mediated by AR: only limited activity
Percent efficacy at 10 μM relative to 100 nM methyltrienolone, mean of 3
  AR % Eff.: 2.4%

From US8101760B2, “Glucocorticoid receptor modulator and methods of use” (Eli Lilly and Company, priority 2007, dated 2012)
